The values below come from patent US7348316B2, “Use of an anti-endotoxin drug in the prevention and treatment of disease” (Eisai R&D Management Co., Ltd., priority 2003, dated 2008).

The data set relates to endotoxin. Put plainly: administration of E5564 to humans / endotoxin challenge studies. Format: in vivo. From the text:
We have discovered that administration of E5564 to humans in a single bolus or by intermittent infusion is effective at preventing the clinical effects of endotoxemia. […] Thus, we have discovered drug administration regimens involving single bolus or intermittent infusion, to prevent or treat endotoxemia and related conditions and disorders (e.g., sepsis) in humans.

Take `CCCCCC/C=C\CCCCCCCCC[C@@H](O)N[C@H]1[C@H](OCC2O[C@H](OP(=O)(O)O)[C@H](NC(=O)CC(=O)CCCCCCCCCCC)[C@@H](OCCCCCCCCCC)[C@@H]2O)O[C@H](COC)[C@@H](OP(=O)(O)O)[C@@H]1OCC[C@@H](CCCCCCC)OC` (stereo partly drawn) [Compound E5564, α-D-Glucopyranose, 3-O-decyl-2-deoxy-6-O-[2-deoxy-3-O-[(3R)-3-methoxydecyl)-6-O-methyl-2-[[(11Z)-1-oxo-11-octadecenyl)amino]-4-O-phosphono-β-D-glucopyranosyl]-2-[(1,3-dioxotetradecyl)amino]-,1-(dihydrogen phosphate)]: the “activity of the drug after cessation of administration” value (doses higher than the minimum dose found to be effective in endotoxin challenge studies) was “prolonged activity”. Moreover, the “preventing the clinical effects of endotoxemia” value (humans, single bolus or intermittent infusion) is “effective”. Where the note is “previous studies”, the “activity of the drug upon cessation of administration” value is “decreases rapidly” and the “clearance from circulation upon cessation of administration” value is “not cleared from circulation”.
